# Assay results as given in patent US9913808B2, “Injectable pharmaceutical compositions for the treatment of joints” (priority 2010, dated 2018).
# System: synovial membrane of knee joints of rabbits
# Experiment: Intra-articular injection into rabbit knee joints, histological scoring of the synovial membrane after 24 hours
# Assay type: in vivo
# Details: for Prevention of irritation on intra-articular injection (in words): glycerol and glucitol in comparable circumstances, data not shown
# Protocol: After 24 hours the rabbits were sacrificed, the joints were removed and histological studies of the synnovial membrane were carried out. Each of the following histological findings was scored 0 to 3. a. Synovial lining hyperplasia b. Presence of Fibrin c. Inflammatory infiltration d. Necrosis […]
# [1] = rabbit knee, intra-articular injection of the solution itself, sacrifice 24 h after injection, sulphate
# [2] = rabbit knee, intra-articular injection of the solution itself, sacrifice 24 h after injection
molecule,measurement,setting,value
"CCCCCCCCCCCCOS(=O)(=O)[O-].[Na+] [0.2% SLS in saline, sodium lauryl sulphate]","Histological score of synovial membrane (synovial lining hyperplasia, fibrin, inflammatory infiltration, necrosis, each scored 0 to 3), Mean",[1],1.4
"CCCCCCCCCCCCOS(=O)(=O)[O-].[Na+] [0.5% SLS in saline (positive control), sodium lauryl sulphate]","Histological score of synovial membrane (synovial lining hyperplasia, fibrin, inflammatory infiltration, necrosis, each scored 0 to 3), Mean","rabbit knee, intra-articular injection of the solution itself, sacrifice 24 h after injection, listed as 0.5% SLS in saline, sulphate",5.8
same,"Histological score of synovial membrane (synovial lining hyperplasia, fibrin, inflammatory infiltration, necrosis, each scored 0 to 3), Mean",[1],5.8
"OC[C@@H](O)[C@H](O)[C@@H](O)CO [4.5% Xylitol in distilled water, Xylitol]","Histological score of synovial membrane (synovial lining hyperplasia, fibrin, inflammatory infiltration, necrosis, each scored 0 to 3), Mean",[2],1.4
"OC[C@@H](O)[C@@H](O)[C@H](O)[C@H](O)CO [5.4% Mannitol in distilled water, Mannitol]","Histological score of synovial membrane (synovial lining hyperplasia, fibrin, inflammatory infiltration, necrosis, each scored 0 to 3), Mean",[2],3.4
same,Prevention of irritation on intra-articular injection (in words),rabbit knee,does not prevent irritation
OC[C@@H](O)[C@@H](O)[C@H](O)[C@@H](O)CO [glucitol],Prevention of irritation on intra-articular injection (in words),rabbit knee,lack of prevention of irritation
OCC(O)CO [glycerol],Prevention of irritation on intra-articular injection (in words),rabbit knee,lack of prevention of irritation
sodium Hyaluronate [1% sodium Hyaluronate in saline],"Histological score of synovial membrane (synovial lining hyperplasia, fibrin, inflammatory infiltration, necrosis, each scored 0 to 3), Mean","rabbit, in vivo",1.0
